Results on 34 compounds are retold here after PubChem BioAssay (NCI).

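Exposure lasted 48 hours, with cells grown in 96-well plates and compounds tested at five concentrations. At the TGI there is no net growth.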 Where a SMILES comes first, the peptide text is derived from it. [ ]: non-standard residue; d: D form. pGlu = O=C1CC[CH](C(=O)O)N1

Test systems include HT29 colon; KM20L2 colon; XF 498 CNS; DMS 273 small cell lung; M19-MEL melanoma; HOP-18 NSCLC; LXFL 529 NSCLC; DLD-1 colon; DMS 114 small cell lung; RXF-631 renal; SNB-78 CNS.
What all share (experiment): NCI-60 cell line screen, 48 h

`CCOC(=O)C1(C(=O)OCC)C(C(C)(C)C)=C(C)c2ccccc21`: the TGI came to 23.8 µM in the test on HT29 colon; 28.2 µM in the test on KM20L2 colon; 26.3 µM with XF 498 CNS; 25.5 µM with DMS 273 small cell lung; 38.8 µM in the test on M19-MEL melanoma; 70.2 µM with HOP-18 NSCLC. The TGI was found to be 24.5 µM in the test on LXFL 529 NSCLC, 26.4 µM in the test with DLD-1 colon, 26.5 µM in the test with DMS 114 small cell lung and 37.9 µM in the test with RXF-631 renal.
On to `O=C(O)c1nc2cc(Cl)ccc2[nH]c1=O`, for which the TGI with HT29 colon was greater than 100 µM.
Take `Cn1c(-c2ccco2)ccc1-c1ccc(C=O)o1`: the TGI in the test on HT29 colon is greater than 100 µM.
The same measure, in the same setting: then `CC(NC(=O)C1CCC(=O)N1)C(=O)N1CCCC1C(N)=O` (stereo not drawn) ([pGlu]-Ala-Pro-NH2; configuration not given here), with greater than 100 µM; and `CCOC(=O)c1c(O)cn2c1[nH]c1cccc3cccc2c31`, with greater than 100 µM; and `C(=N\c1nc2cc3sc(/N=C/c4ccccc4)nc3cc2s1)/c1ccccc1`, with greater than 100 µM.
As to `COC1OC2COC1(OCc1ccccc1)C1OC(C)(C)OC21` (stereo not drawn), the TGI in the test with HT29 colon is greater than 100 µM.
On the same count and under the same terms, then `C=CCC1(C(=O)OC)CCC/C(=N\O)C1` (stereo not drawn), with greater than 10 µM.
In the case of `O=C(O)/C=C/c1ccc(Oc2ccccc2C(=O)O)o1`, the TGI in the test with HT29 colon is greater than 10 µM.
In the test with HT29 colon, `Cc1c(NC(=S)Nc2ccc([N+](=O)[O-])cc2)c(=O)n(-c2ccccc2)n1C` came in with a TGI greater than 100 µM.
In the test with HT29 colon, `CC(NC1=NCCO1)c1ccccc1Cl` (stereo not drawn) came in with a TGI greater than 100 µM.
As to `O=[N+]([O-])c1ccc(-c2csc(N=Nc3c(O)[nH]c4ccccc34)n2)cc1`, the TGI with HT29 colon came to 76.6 µM.
With `COc1ccc(N2C(=O)C3CC(c4ccc(Br)cc4)c4c([nH]c5ccccc45)C3C2=O)cc1` (stereo not drawn), the TGI in the test with HT29 colon was determined as 44.5 µM; with KM20L2 colon, 27.3 µM; in the test with XF 498 CNS, 32 µM; in the test on DMS 273 small cell lung, 18.2 µM; with M19-MEL melanoma, 25.6 µM; in the test with HOP-18 NSCLC, 24.8 µM. Also, the TGI in the test with LXFL 529 NSCLC came to 14.2 µM; with DLD-1 colon, 23.4 µM; with DMS 114 small cell lung, 20.8 µM; in the test on SNB-78 CNS, 36.3 µM.
As for `CCn1c(SCC(=O)N/N=C2\SCC(=O)N2c2ccc(C)cc2)nc2ccccc2c1=O`, the TGI in the test on HT29 colon is 31.2 µM.
Turning to `CC(=O)OCc1c(O)c2c([nH]c1=O)CCc1ccccc1-2`, the TGI with HT29 colon amounted to 311 µM; in the test with KM20L2 colon, 263 µM; in the test with XF 498 CNS it was 104 µM; in the test with DMS 273 small cell lung, 159 µM; with M19-MEL melanoma, 108 µM; with HOP-18 NSCLC, 295 µM. For the same compound, the TGI in the test on LXFL 529 NSCLC is 111 µM; in the test on DLD-1 colon, 162 µM; with DMS 114 small cell lung, 155 µM; in the test with RXF-631 renal, 149 µM.
Take `ClCc1nc2ccccc2[nH]1`: in the test on HT29 colon, the TGI was greater than 100 µM.
Same read-out and setting: then `OC1NC2Nc3ccccc3NC2NC1O` (stereo not drawn), with greater than 100 µM.
Regarding `CC(C)(C)OC(=O)NCC(CNC(=O)OC(C)(C)C)C(N)=O`, the TGI in the test on HT29 colon is greater than 100 µM.
For the compound `CC(C)(C)c1cc(/C=C(\C#N)C2=NCCO2)cc(C(C)(C)C)c1O`, in the test with HT29 colon, the TGI is 11.7 µM.
Same read-out and setting: the figure for `COc1ccc(CCN2CCN(CCCc3ccccc3)CC2)cc1` is greater than 100 µM; for `O=C1C(Cl)=C(Cl)C(=O)C(CCNc2nccs2)=C1Cl` it is greater than 100 µM.
Consider `COC(NC(=O)Nc1ccc(C)cc1)(C(F)(F)F)C(F)(F)F`, for which, in the test on HT29 colon, the TGI was greater than 100 µM.
For `CCCCN(CC)C(=O)C(=O)Cc1nc2ccc(C(=O)c3ccccc3)cc2[nH]c1=O`, the TGI in the test on HT29 colon, with KM20L2 colon, with DMS 273 small cell lung, in the test with M19-MEL melanoma, in the test with LXFL 529 NSCLC and in the test with DLD-1 colon was greater than 100 µM in each case. The TGI with DMS 114 small cell lung and with SNB-78 CNS was greater than 100 µM throughout.
For the compound `COC(=O)C1=C(C)NC(=O)N2[C@@H](CCOCc3ccccc3)CC[C@@H]12`, in the test with HT29 colon, the TGI is greater than 50 µM.
`Fc1cc(C2=Nn3c(COc4ccccc4Cl)nnc3S/C2=C\c2ccc(Cl)cc2)c(Cl)cc1Cl` gave a TGI with HT29 colon greater than 100 µM.
Take `CC(C)(C)C1=C(Br)C(F)(C(C)(C)C)OP1(=O)c1ccccc1` (stereo not drawn): the TGI in the test with HT29 colon stood at 35 µM.
In the case of `COC(=O)c1ccc(NCc2cc(OC)ccc2OC)cc1`, in the test on HT29 colon, the TGI was greater than 100 µM.
Compound `CCOC(=O)C(NC(=O)c1cccc(Cl)c1)(Nc1ccc(S(=O)(=O)Nc2cc(C)on2)cc1)C(F)(F)F` (stereo not drawn) gave a TGI in the test with HT29 colon greater than 100 µM.
Regarding `COC(=O)c1cc2c(c(C(=O)OC)c1)CCC2`, the TGI in the test on HT29 colon was greater than 100 µM.
Still for that read-out and setting: the figure for `COc1cc(C2C=C(c3ccccc3)Oc3cc4c(cc32)OCO4)cc(OC)c1OC` (stereo not drawn) is greater than 18.3 µM.
The compound `NCC(=O)Nc1ccccc1` displayed a TGI in the test with HT29 colon greater than 100 µM.
The same measure, in the same setting: the figure for `CCOP(=O)(OCC)Oc1c(OC)c2[nH]c(C(=O)OC)cc2c2c(C(=O)O)c[nH]c12` is greater than 100 µM; for `COc1ccc(/[N+]([O-])=C/c2ccc(OC(=S)S)c(OC)c2)cc1` it is greater than 100 µM.
Take `COc1ccc2c(c1)c1c3c(ccc4ncn2c43)N(CCO)CCN=1`: in the test with HT29 colon, the TGI worked out at 0.898 µM.
